Among the data in patent publication US5128362A, “1-aminomethyl-1,2,3,4-tetrahydronaphthalenes” (Abbott Laboratories, priority 1990, dated 1992) are Ki values, retold here.

Where a name gives a salt, the structure may show the parent alone. Read-outs that look alike come from different tables or passages of the source.

The target in the test is T1, alpha 2 receptor (Rattus norvegicus, UniProt P22909).
T1 construct: rat cerebral cortices; from tissue; host or cells: rat cerebral cortices
T1 sequence (P22909 1-465): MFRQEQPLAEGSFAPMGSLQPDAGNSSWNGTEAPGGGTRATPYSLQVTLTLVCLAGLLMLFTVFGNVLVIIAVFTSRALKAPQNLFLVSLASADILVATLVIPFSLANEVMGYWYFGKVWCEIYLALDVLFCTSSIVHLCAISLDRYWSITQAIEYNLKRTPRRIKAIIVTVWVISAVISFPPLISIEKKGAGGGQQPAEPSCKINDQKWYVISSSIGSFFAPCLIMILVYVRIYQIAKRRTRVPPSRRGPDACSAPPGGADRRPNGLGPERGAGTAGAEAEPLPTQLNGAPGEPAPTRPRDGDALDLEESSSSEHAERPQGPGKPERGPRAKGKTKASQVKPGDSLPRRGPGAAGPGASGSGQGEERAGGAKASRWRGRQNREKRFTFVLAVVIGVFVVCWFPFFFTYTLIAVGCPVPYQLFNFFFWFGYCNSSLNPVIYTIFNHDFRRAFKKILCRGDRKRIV
Kind of test: Radioligand binding, [3H]rauwolscine, rat cerebral cortices. As to the method: The compounds were assessed for alpha-adrenergic receptor subtype selectivity by use of radioligand binding techniques as described previously (DeBernardis et. al. J. Med. Chem. 28, 1398 (1985)).

Usually Ki stands for the dissociation constant of the complex between target and ligand, obtained from inhibition or displacement. Turning to `COc1ccc2c(c1OC)CCCC2CN(C)CCc1cccs1` (centres unmarked) [Example 86, 1-((N-Methylamino)methyl-N-(2-(2-thienyl)ethyl))-5,6-dimethoxy tetralin hydrochloride], under “read-out: Ki alpha-2”, the Ki amounted to 3 nM.

For `COc1ccc2c(c1)CCCC2CN(C)CCc1ccsc1` (centres unmarked) [Example 6d, 1-((N-methylamino)methyl-N-(2-(3-thienyl)ethyl))-6-methoxy tetralin hydrochloride], the Ki (read-out: Ki alpha-2) came out at 1.5 nM.

With `CCN(CCc1cccc(F)c1)CC1CCCc2cc(OC)ccc21` (centres unmarked) [Example 42, 1-((N-Ethylamino)methyl-N-(2-(m-fluorophenyl)ethyl))-6-methoxy tetralin hydrochloride], the Ki (read-out: Ki alpha-2) stood at 6.6 nM.

`COc1cc2c(cc1F)C(CN(C)CCc1ccco1)CCC2` (centres unmarked) [Example 141, 1-((N-methylamino)methyl-N-(2-(2-furyl)ethyl))-6-methoxy-7-fluoro tetralin methanesulfonate]: where the note is “read-out: Ki alpha-2”, the Ki is 4.8 nM.

As to `CN(CCc1cccs1)CC1CCCc2ccccc21` (centres unmarked) [Example 22, 1-((N-Methylamino)methyl-N-(2-(2-thienyl)ethyl)) tetralin hydrochloride], the Ki (read-out: Ki alpha-2) amounted to 1.3 nM.

As to `CN(CCc1cccs1)CC1CCCc2c1ccc(O)c2I` (centres unmarked) [Example 115, 1-((N-Methylamino)methyl-N-(2-(2-thienyl)ethyl))-5-iodo-6-hydroxy tetralin hydrochloride], the Ki (read-out: Ki alpha-2) worked out at 3 nM.

Turning to `CN(CCc1cccc(F)c1)CC1CCCc2ccccc21` (centres unmarked) [Example 70, 1-((N-Methylamino)methyl-N-(2-(m-fluorophenyl)ethyl))-tetralin hydrochloride], under “read-out: Ki alpha-2”, the Ki was determined as 5 nM.

In the case of `COc1ccc2c(c1)CCCC2CN(C)CCc1cccc(O)c1` (centres unmarked) [Example 83, 1-((N-Methylamino)methyl-N-(2-(m-hydroxyphenyl)ethyl))-6-methoxy tetralin hydrochloride], the Ki (read-out: Ki alpha-2) was 8 nM.

Take `CCCN(CCc1cccs1)CC1CCCc2cc(OC)ccc21` (centres unmarked) [Example 58, 1-((N-Propylamino)methyl)-N-(2-(2-thienyl)ethyl))-6-methoxy tetralin hydrochloride]: the Ki (read-out: Ki alpha-2) was found to be 18 nM.

Consider `CCN(CCc1cccc(F)c1)CC1CCCc2c1ccc1c2OCO1` (centres unmarked) [Example 165, 1-((N-Ethylamino)methyl-N-(2-m-fluorophenethyl))-5,6-methylenedioxy tetralin hydrochloride], for which, for the setting “read-out: Ki alpha-2”, the Ki amounted to 3.5 nM.

On to `CCN(CCc1cccs1)CC1CCCc2c1ccc1c2OCO1` (centres unmarked) [Example 164, 1-(N-Ethylamino)methyl-N-(2-(2-thienyl)ethyl))-5,6-methylenedioxy tetralin hydrochloride], for which the Ki (read-out: Ki alpha-2) amounted to 3.7 nM.

The compound `COc1ccc2c(c1)CCCC2CN(C)CCC1CCCC1` (centres unmarked) [Example 6f, 1-((N-methylamino)methyl-N-(2-(cyclopentyl)ethyl))-6-methoxy tetralin hydrochloride] came in with a Ki of 6.5 nM.

Turning to `COc1cc2c(c(OC)c1)C(CN(C)CCc1cccs1)CCC2` (centres unmarked) [Example 26, 1-((N-Methylamino)methyl-N-(2-(2-thienyl)ethyl))-6,8-dimethoxy tetralin hydrochloride], the Ki (read-out: Ki alpha-2) came to 0.6 nM.

With `Cc1cc(O)c(O)c2c1C(CN(C)CCc1cccc(F)c1)CCC2` (centres unmarked) [Example 34, 1-((N-Methylamino)methyl-N-(2-(m-fluorophenyl)ethyl))-5,6-dihydroxy-8-methyl tetralin hydrobromide], for the setting “read-out: Ki alpha-2”, the Ki amounted to 2.6 nM.

For `CCN(CCc1cccs1)CC1CCCc2cc(OC)ccc21` (centres unmarked) [Example 41, 1-((N-Ethylamino)methyl-N-(2-(2-thienyl)ethyl))-6-methoxy tetralin hydrochloride], the Ki (read-out: Ki alpha-2) was determined as 2.9 nM.

On to `COc1ccc2c(c1)CCCC2CN(C)CCc1cccs1` (centres unmarked) [Example 5, 1-((N-Methylamino)methyl-N-(2-(2-thienyl)ethyl))-6-methoxy tetralin methanesulfonate], for which the Ki (read-out: Ki alpha-2) turned out to be 0.8 nM.

For `CN(CCc1cccs1)CC1CCCc2cc(Cl)ccc21` (centres unmarked) [Example 49, 1-((N-Methylamino)methyl-N-(2-(2-thienyl)ethyl))-6-chloro tetralin hydrochloride], the Ki (read-out: Ki alpha-2) was found to be 10 nM.
